Results reported in PMC12690644 (RSC Advances, 2025).

molecular target: acetylcholinesterase (AChE); assay: colorimetric kinetic kit assay, […] nm; type: biochemical; details: room temperature, 10-15 min preincubation

Row | SMILES | AChE (μg mL^-1 ± SD) [µg/mL]
1 | O=C1C[C@@H](c2ccc(O)cc2)Oc2cc(O)cc(O)c21 [compound 1, naringenin] | 0.212 ± 0.007
2 | O=c1c(O)c(-c2ccc(O)cc2)oc2cc(O)cc(O)c12 [compound 2, 3,4′,5,7-tetrahydroxyflavone] | 1.099 ± 0.03
3 | COc1c(-c2ccc(O)cc2)oc2cc(O)cc(O)c2c1=O [compound 3, isokaempferide] | 0.483 ± 0.015
4 | CC1=CC(=O)CC(C)(C)[C@@]1(O)/C=C/[C@@H](C)O[C@@H]1O[C@H](CO)[C@@H](O)[C@H](O)[C@H]1O [compound 4, vomifoliol-9-O-β-D-glucopyranoside] | 0.452 ± 0.014
5 | C[N+](C)(CCl)CCc1ccc(O)cc1 [compound 5, N-chloromethyl hordenine] | 0.076 ± 0.002
6 | CC(=O)[N+](C)(C)CCc1ccc(O)cc1 [compound 6, N-acetyl hordenine] | 2.255 ± 0.074
7 | CC(=O)[N+](C)(CCl)CCc1ccc(O)cc1 (centres unmarked) [compound 7, N-acetyl-N-chloromethyl-N-methyl tyramine] | 0.607 ± 0.02

molecular target: β-secretase (BACE-1) (Homo sapiens, UniProt P56817); assay: fluorescence kit assay, slope based; type: biochemical; details: not given
Sequence (P56817 46-501): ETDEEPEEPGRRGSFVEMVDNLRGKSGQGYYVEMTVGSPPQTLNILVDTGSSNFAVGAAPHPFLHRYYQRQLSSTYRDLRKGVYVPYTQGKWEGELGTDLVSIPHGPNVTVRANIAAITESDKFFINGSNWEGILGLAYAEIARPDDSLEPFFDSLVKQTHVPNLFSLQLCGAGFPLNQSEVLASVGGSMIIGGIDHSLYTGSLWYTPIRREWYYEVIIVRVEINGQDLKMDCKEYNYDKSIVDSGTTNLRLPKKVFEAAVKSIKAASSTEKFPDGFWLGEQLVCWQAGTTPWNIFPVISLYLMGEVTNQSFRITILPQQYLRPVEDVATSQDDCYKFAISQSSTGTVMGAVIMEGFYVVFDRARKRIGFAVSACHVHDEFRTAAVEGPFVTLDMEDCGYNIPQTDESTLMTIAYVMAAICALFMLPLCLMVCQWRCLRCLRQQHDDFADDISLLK

Row | SMILES | IC50 [nM]
8 | O=C1C[C@@H](c2ccc(O)cc2)Oc2cc(O)cc(O)c21 [compound 1, naringenin] | 1550
9 | O=c1c(O)c(-c2ccc(O)cc2)oc2cc(O)cc(O)c12 [compound 2, 3,4′,5,7-tetrahydroxyflavone] | 25100
10 | COc1c(-c2ccc(O)cc2)oc2cc(O)cc(O)c2c1=O [compound 3, isokaempferide] | 446
11 | CC1=CC(=O)CC(C)(C)[C@@]1(O)/C=C/[C@@H](C)O[C@@H]1O[C@H](CO)[C@@H](O)[C@H](O)[C@H]1O [compound 4, vomifoliol-9-O-β-D-glucopyranoside] | 171
12 | C[N+](C)(CCl)CCc1ccc(O)cc1 [compound 5, N-chloromethyl hordenine] | 1250
13 | CC(=O)[N+](C)(C)CCc1ccc(O)cc1 [compound 6, N-acetyl hordenine] | 8210
14 | CC(=O)[N+](C)(CCl)CCc1ccc(O)cc1 (centres unmarked) [compound 7, N-acetyl-N-chloromethyl-N-methyl tyramine] | 494
